Square brackets hold non-standard residues; d marks the D form. Ends that are not written are not given here.
Assays:
[1] = system: SMAD transcriptional activity; test: SMAD transcriptional activity (luciferase) with GEF-1/C constituent oligopeptides, B16 cells; type: cell-based, mouse; details: oligopeptide 2.5 nmol with peptide transporter Wr-T, 48 hours
Description: Each GEF-1/C constituent oligopeptide (2.5 nmol) and a peptide transporter Wr-T (0.2 nmol) were mixed and then diluted to 0.1 ml with PBS, and mixed with a DNA solution for SMAD transcriptional activity testing (0.1 ml). To the respective cells (B16 cells and COLO205 cells) in a 48-well plate, which had been washed with Opti-MEM I medium, the mixture thus prepared was added in a volume of 0.2 ml per well. After 4 hours, 20% FBS/Opti-MEM I medium (0.2 ml) was added to each well. After 48 hours, the respective cells were lysed and the luciferase activity in each lysate was measured.

COLO205 cells [2] = test: growth in soft agar medium, COLO205 cells; type: cell-based, human; details: oligopeptide introduced with Wr-T
Description: (§1) A cell culture solution (1.5 ml), in which agarose (low gelling temperature agarose) was dissolved at a concentration of 0.5% (w/v), was added to a 35 mm dish, cooled and gelled. Onto the resulting gel, a 0.33% agarose/cell culture medium containing 5.0×10^3 cells was added in a volume of 1.5 ml. After gelling, the cells were cultured in a CO2 incubator for 2 weeks. A 0.005% (w/v) aqueous solution of crystal violet (0.5 ml) was added onto the gel and incubated overnight to stain the cells. The 35 mm dish was scanned with a scanner, and colony counts were measured from the resulting image using image analysis software.
(§2) The GEF-1/C constituent oligopeptides were studied for their inhibitory effect on the growth of various tumor cells (B16 cells, HeLa cells, COLO205 cells, KATO III cells, A549 cells and PT45 cells) in soft agar medium.
(§3) In the same manner as shown in (2) above, the GEF-1/C constituent oligopeptides were introduced into various tumor cells and these cells were seeded together with a 0.33% soft agar medium.

B16 cells [3] = test: in vivo anti-tumor growth effect of oligopeptides, B16 cells in nude mice; set-up: species or system mouse; details: cells incubated with oligopeptide 25 nmol and Wr-T for 2 hours, then inoculated subcutaneously into nude mice
Description: Each GEF-1/C constituent oligopeptide (25 nmol) and a peptide transporter Wr-T (2 nmol) were mixed and then diluted to 0.1 ml with PBS, to which each cell suspension prepared at 5.0×10^6 cells/ml Opti-MEM I medium was then added in a volume of 0.1 ml and mixed. This cell mixture was incubated in a CO2 incubator at 37° C. for 2 hours and then inoculated subcutaneously into nude mice. The long and short axes of tumor were measured at intervals of a week to calculate the tumor volume (=long axis×(short axis)^2×π/6). After the mice were finally euthanized with carbon dioxide gas, tumor in each mouse was photographed. Subsequently, the tumor was excised and measured for its wet weight.

HeLa cells = test: growth in soft agar medium, HeLa cells; type: cell-based, human; details: oligopeptide introduced with Wr-T
Description: as §1, §2, §3

B16 cells [4] = test: growth in soft agar medium, B16 cells; type: cell-based, mouse; details: oligopeptide introduced with Wr-T
Description: as §1, §2, §3

COLO205 cells [5] = test: in vivo anti-tumor growth effect of r9-OP10-11 on established COLO205 tumor in nude mice; set-up: species or system human; details: tumor already formed; 35 nmol in PBS around the tumor, four weekly administrations
Description: 1.0×10^6 COLO205 cells were inoculated subcutaneously into nude mice to prepare tumor of COLO205 cells. At 10 days after inoculation, a solution of r9-OP10-11 (35 nmol)/PBS was administered in a volume of 0.1 ml around the tumor whose diameter reached 5 to 6 mm (about 100 mm^3) At 7, 14 and 21 days after this administration, the same administration was repeated. The long and short axes of tumor were measured to calculate the tumor volume (=long axis×(short axis)^2×π/6). After the mice were finally euthanized with carbon dioxide gas, tumor in each mouse was photographed. Subsequently, the tumor was excised and measured for its wet weight.

B16 cells [6] = test: cell migration ability of shRNA-expressing B16 cells, Boyden chamber; type: cell-based, mouse; details: B16 cells stably expressing the shRNA
Description: (§4) The respective shRNA expression vectors prepared in i) above were each introduced into B16 cells by gene transfer and subjected to drug selection using G418 drug (1 mg/ml). B16 cells expressing the respective shRNAs (B16/shRNA-74 cells, B16/shRNA-157 cells and B16/shRNA-207 cells) were finally obtained by cloning. These cells were confirmed for their GEF-1 expression levels by Western blotting and also examined for their ability of cell migration using a Boyden chamber.

GEF-1 (Hrs/Hgs) = test: GEF-1 (Hgs) expression level by Western blotting in shRNA-expressing B16 cells; type: cell-based, mouse; details: B16 cells stably expressing the shRNA
Description: as §4

KOP2.16 cells = test: tube formation inhibition test with GEF-1 siRNAs; type: cell-based, mouse; details: siRNA 40 nmol with lipofectamine 2000; transfected KOP2.16 cells seeded on Matrigel
Description: To confirm the in vitro anti-angiogenic effect of the GEF-1-siRNAs, a tube formation inhibition test was conducted using vascular endothelial KOP2.16 cells.
Each siRNA (40 nmol) and lipofectamine 2000 (10 μl) were mixed and then diluted to 1.0 ml with Opti-MEM I medium, and added to KOP2.16 cells in a 35 mm dish, which had been washed with Opti-MEM I medium. After 4 hours, 20% FBS-containing Opti-MEM I medium (1.0 ml) was added to the dish. After 48 hours, siRNA-transfected cells were collected and counted, and then suspended in Opti-MEM I medium and seeded again on Matrigel. After 18 to 48 hours, tube formation in the cells was observed. As negative controls, PBS (“None” in FIG. 15) and Stealth RNA Negative Control Medium GC Duplex (Invitrogen) (“siRNA-MNC” in FIG. 15) were used.

B16 cells [7] = test: in vivo anti-tumor growth effect of siRNA#3, B16 tumor in nude mice; set-up: species or system mouse; details: siRNA#3/atelocollagen mixture injected near the tumor, three times at intervals of a week
Description: B 16 cells were inoculated subcutaneously into nude mice. After about a week when tumor reached about 5 mm diameter (about […]), an siRNA#3/atelocollagen mixture (0.2 ml) was injected near the tumor. Subsequently, the same siRNA#3/atelocollagen mixture was further injected twice near the tumor at intervals of a week.

## OP10-7: GEF-1/C constituent oligopeptide ALSALREEHR (SEQ ID NO: 60)
[1]
  inhibition of SMAD transcriptional activity: about 50%

## OP10-10: GEF-1/C constituent oligopeptide KLEIMRQKKQ (SEQ ID NO: 63)
COLO205 cells [2]
  inhibition of growth ability in soft agar medium: about 50%

## OP10-11: GEF-1/C constituent oligopeptide EYLEVQRQLA (SEQ ID NO: 64)
B16 cells [3]
  inhibition of B16 cell tumor growth: ≥ 50%
HeLa cells
  inhibition of growth ability in soft agar medium: about 20%
[1]
  inhibition of SMAD transcriptional activity: about 50%
B16 cells [4]
  inhibition of growth ability in soft agar medium: about 60%
COLO205 cells [2]
  inhibition of growth ability in soft agar medium: about 50%

## OP10-12: GEF-1/C constituent oligopeptide IQRLQEQEKE (SEQ ID NO: 65)
[1]
  inhibition of SMAD transcriptional activity: about 50%

## r9-OP10-11: OP10-11 linked to a cell membrane permeable peptide, rrrrrrrrrGPGEYLEVQRQLA (r = D-arginine) (SEQ ID NO: 67) ([dR][dR][dR][dR][dR][dR][dR][dR][dR]GPGEYLEVQRQLA)
COLO205 cells [5]
  inhibition of growth of COLO205 cell tumor in tumor volume: about 65%
  inhibition of growth of COLO205 cell tumor in tumor weight: about 60%

## shRNA-157: shRNA against mouse GEF-1 (Hrs/Hgs) gene, Hgs157 template SEQ ID NO: 26; B16/shRNA-157 cells used as B16/shRNA cells (DNA CCGTTAATGATAAGAACCCACTTCAAGAGAGTGGGTTCTTATCATTAACTTTTTA)
B16 cells [6]
  inhibition of cell migration ability: 95%
GEF-1 (Hrs/Hgs)
  inhibition of Hgs expression: 95%

## siRNA#2: stealth RNAi against mouse Hgs; sense 5′-GGACGAUACUCGUCGACUUGUUCUU (SEQ ID NO: 32, 33) (antisense AAGAACAAGUCGACGAGUAUCGUCC; listed as RNA, chemistry not given here)
KOP2.16 cells
  inhibitory effect on tube formation: significant inhibitory effect

## siRNA#3: stealth RNAi against mouse Hgs; sense 5′-UAGAAUGGACUCCCAGUCUGACUCC (SEQ ID NO: 34, 35) (antisense GGAGUCAGACUGGGAGUCCAUUCUA; listed as RNA, chemistry not given here)
KOP2.16 cells
  inhibitory effect on tube formation: significant inhibitory effect
B16 cells [7]
  tumor volume as compared to PBS or siRNA#3-scramble: ≤ 50%
  tumor weight as compared to PBS or siRNA#3-scramble: ≤ 50%

Reference: patent publication US20130190240A1, “TUMOR GROWTH CONTROLLING METHOD TARGETING GALACTOSYLCERAMIDE EXPRESSION FACTOR-1” (priority 2010, published 2013)
